Data: patent US5466675A, “Immunological activity of rhamnolipids” (priority 1992, dated 1995)

How the values were obtained:
elastase = assay: enzyme inhibition, elastase; type: biochemical
Protocol: (§1) Rhamnolipid (II) was tested in vitro against a wide array of enzymes.
(§2) All enzyme assays were done spectrophotometrically by computer linked automatic microplate reader (Labsystem Multiskan) and Diode Array spectrophotometer (Perkin Elmer).

[1] = system: B-cells isolated from mouse spleens; assay: B-lymphocyte proliferation; type: cell-based; conditions: B-cell, 0.5% DMSO, read-out: % Stimulation (+)/Suppression (-)
Protocol: Procedure: B-cells were isolated from mouse spleens using conventional procedures, and suspended in DMEM. 10^6 cells/ml were incubated overnight at 37° C. to assess stimulation (positive score, related to 1 ug/ml lipopolysaccharide) or suppression (negative score, related to blank control) of cell proliferation. The test substance was evaluated under these conditions at 10, 1, 0.1, 0.01 and 0.001 uM. After overnight incubation, 2 uCi [^3 H] thymidine incorporation was assessed by liquid scintillation counting.

[2] = system: A431 human epidermal cells; conditions: in particular in the presence of PMA
CHO cells [3] = system: CHO cells
in vitro = conditions: monkey, vero cells
[4] = system: tissue plasminogen activator (t-PA) released by human umbilical cord venous endothelial cells; assay: tissue plasminogen activator release; type: cell-based
beta-galactosidase = assay: enzyme inhibition, beta-galactosidase; type: biochemical
Protocol: as §1
The following enzymes were inhibited at the various rhamnolipid concentrations indicated:
as §2

patients = conditions: human, in vivo
Excerpt: Blood samples for lab tests were taken from all twelve patients on the first and last day of treatment.

[5] = range-finding study phase (single intravenous dose); conditions: mouse, in vivo, iv
mice C57B1/6 = assay: as above
P561ek Tyrosine Kinase = P561ek Tyrosine Kinase (Homo sapiens, UniProt P06239); assay: enzyme inhibition, p56lck tyrosine kinase; type: biochemical; conditions: 0.5% DMSO
Protocol: as §1, §2

polio I virus = type: cell-based; conditions: concentrations ≤100 ug/ml
blood count in mouse = conditions: in vivo
Excerpt: Activity of Di-rhamnolipid on Blood Count in Mouse
Blood count after application of di-rhamnolipid

Psoriasis = conditions: 1% rhamnolipid ointment; Belgium patent No. 1,005,704; cited from earlier work
papain = papain (Carica papaya, UniProt P00784); assay: enzyme inhibition, papain; type: biochemical
Protocol: as §1, §2

[6] = system: B-cells isolated from mouse spleen; assay: B-lymphocyte proliferation + LPS; type: cell-based
Protocol: Procedure: B-cells were isolated from mouse spleen using convnetional procedures, and suspended in DMEM. 10^6 cells/ml were incubated overnight at 37° C. in the presence of 10 ug/ml lipopolysaccharide (LPS) to assess stimulation (positive score, related to 1 ng/ml rat interleukin-5) or suppression (negative score, related to control) of cell proliferation. The test substance was evaluated under these conditions at 10, 1, 0.1, and 0.01 uM. After overnight incubation, 2 uCi [^3 H] thymidine was added to each well. Cells were harvested after an additional 48 hour incubation, and thymidine incorporation assessed by liquid scintillation counting.

alpha-glucosidase = assay: enzyme inhibition, alpha-glucosidase; type: biochemical
Protocol: as §1, §2

Candida albicans = assay: immunomodulation: infection with Candida albicans; type: in vivo, mouse (ICR, female); conditions: for Survivor No.: n = 10
Protocol: The test compound or vehicle was administered i.p. to groups of 10 mice 1 hour before IV, challenge with suspension of C. albicans sufficient to result in 90 to 100% mortality within 10 days in the vehicle treated control group. A greater than 30 percent survival for any treated group is considered very significant, and possibly a result of immunomodulation, while an increase of 20% is considered a moderate immunomodulation activity.

rat platelet rich plasma = assay: collagen induced platelet aggregation; type: cell-based; conditions: 0.1 mg/ml
Protocol: Collagen induced platelet aggregation in rat platelet rich plasma was not affected by rhamnolipid (II) at 0.1 mg/ml.

CHO cells [7] = type: cell-based
Protocol: After 16h incubation of CHO cells with rhamnolipid, the number of micronuclei inside certain binuclear cells increased up to 4.

[8] = fourth day after application, IV

P561ek Tyrosine Kinase, sequence (P06239 whole entry): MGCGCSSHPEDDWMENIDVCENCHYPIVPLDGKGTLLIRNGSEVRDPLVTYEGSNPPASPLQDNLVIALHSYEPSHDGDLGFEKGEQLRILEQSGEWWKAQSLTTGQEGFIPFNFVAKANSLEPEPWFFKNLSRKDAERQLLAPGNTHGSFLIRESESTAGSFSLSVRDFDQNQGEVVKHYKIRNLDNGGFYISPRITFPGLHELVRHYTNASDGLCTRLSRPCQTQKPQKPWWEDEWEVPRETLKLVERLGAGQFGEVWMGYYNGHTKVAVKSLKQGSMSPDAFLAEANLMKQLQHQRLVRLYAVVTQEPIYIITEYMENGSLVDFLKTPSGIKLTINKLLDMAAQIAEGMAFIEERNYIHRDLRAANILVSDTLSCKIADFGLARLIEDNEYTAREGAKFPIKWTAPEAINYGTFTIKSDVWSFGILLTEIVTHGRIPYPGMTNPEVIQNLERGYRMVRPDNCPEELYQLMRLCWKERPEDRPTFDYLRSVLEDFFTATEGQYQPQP
papain, sequence (P00784 134-345): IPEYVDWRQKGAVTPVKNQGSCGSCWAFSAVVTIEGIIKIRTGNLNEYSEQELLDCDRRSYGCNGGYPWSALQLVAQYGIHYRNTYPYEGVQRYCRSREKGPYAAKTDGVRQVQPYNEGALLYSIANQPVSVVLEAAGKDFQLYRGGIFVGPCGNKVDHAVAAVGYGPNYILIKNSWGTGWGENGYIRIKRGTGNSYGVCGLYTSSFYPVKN

## CCCCCCCC(CC(=O)O)OC(=O)CC(CCCCCCC)O[C@@H]1O[C@@H](C)[C@H](O)[C@@H](O)[C@H]1O[C@@H]1O[C@@H](C)[C@H](O)[C@@H](O)[C@H]1O (stereo partly drawn) [Rhamnolipid (II), (alpha-L-rhamnopyranosyl-(1,2)alpha-L-rhamnopyranosyl)-3-hydroxydecanoyl-3-hydroxydecanoic acid]
elastase
  effect on enzyme: no effect
[1]; 0.001 uM
  activation at 0.001 µM: 4%
[1]; 0.01 uM
  activation at 0.01 µM: 8%
[1]; 0.1 uM
  activation at 0.1 µM: 10%
[1]; 1 uM
  activation at 1 µM: 9%
[1]; 10 uM
  activation at 10 µM: 2%
[2]
  A431 cell growth: suppressed A431 cell growth
CHO cells [3]
  defect of spiralization: not observed
  overall structural chromosome damages and number of cells with 2 to 4 aberrations: increased several fold
In vitro
  MCC: ≥ 200 µg/mL
[4]; 0.1 mg/ml, PMA induced
  t-PA release induced by PMA: slightly inhibited
[4]; basal
  basal t-PA release: no effect
beta-galactosidase
  concentration at which the enzyme was inhibited: 100 µg/mL
patients
  lab tests of blood samples: no altered results of the tests were observed
[5]
  LD50: 105 mg/kg
Mice C57B1/6; IV application
  single dose toxicity: 7.5 mg/kg
Mice C57B1/6; [8]
  lymphocytes: significant decrease
  neutrophils: significant increase
Mice C57B1/6; observation period, IV single dose
  behavior and appearance of treated mice: no changes
Mice C57B1/6; single intravenous dose
  lower bracket dose (LBD): 67.5 mg/kg
  upper bracket dose (UBD): 127.5 mg/kg
P561ek Tyrosine Kinase; 0.01 μM
  inhibition at 0.01 µM: 4%
P561ek Tyrosine Kinase; 1 μM
  inhibition at 1 µM: 3%
P561ek Tyrosine Kinase; 100 μM
  inhibition at 100 µM: 11%
Polio I virus
  antiviral activity: no activity
Blood count in mouse
  Lymphocyts: 53.40 +/- 11.14
  lymphocytes: 56.50 +/- 12.02
  nRBC: 0
Blood count in mouse; iv, 7.5 mg/kg
  change in lymphocytes: decreased
  change in neutrophils: significantly increased
Psoriasis
  activity in treatment of Psoriasis: strong activity
papain
  effect on enzyme: no effect
[6]; 10 uM and 1 uM, added lipopolysaccharide
  B-cell proliferation: significant suppression
[6]; Mus musculus, B-cell, read-out: % Stimulation (+)/Suppression (-)
  activation at 0.001 µM: 13%
[6]; Mus musculus, B-cell, 0.01 uM, LPS, 0.5% DMSO, read-out: % Stimulation (+)/Suppression (-)
  activation at 0.01 µM: -15%
[6]; Mus musculus, B-cell, 0.1 uM, LPS, 0.5% DMSO, read-out: % Stimulation (+)/Suppression (-)
  activation at 0.1 µM: -9%
[6]; Mus musculus, B-cell, 1 uM, LPS, 0.5% DMSO, read-out: % Stimulation (+)/Suppression (-)
  activation at 1 µM: -25%
[6]; Mus musculus, B-cell, 10 uM, LPS, 0.5% DMSO, read-out: % Stimulation (+)/Suppression (-)
  activation at 10 µM: -54%
alpha-glucosidase
  effect on enzyme: no effect
Candida albicans; 10 mg/kg and 1 mg/kg
  immunomodulation activity: moderate activity
Candida albicans; IP 0.1 × 3 mg/kg
  Death, days post-inoculum 0-1: 3 #/10 Mice
  Death, days post-inoculum 2-3: 4 #/10 Mice
  Death, days post-inoculum 4-6: 1 #/10 Mice
  Death, days post-inoculum 7-9: 0 #/10 Mice
  Response Inc. %: 0%
  Survivor No.: 2
Candida albicans; IP 1 × 3 mg/kg
  Death, days post-inoculum 0-1: 2 #/10 Mice
  Death, days post-inoculum 2-3: 3 #/10 Mice
  Death, days post-inoculum 4-6: 1 #/10 Mice
  Death, days post-inoculum 7-9: 0 #/10 Mice
  Response Inc. %: 20%
  Survivor No.: 4
Candida albicans; IP 10 × 3 mg/kg
  Death, days post-inoculum 0-1: 0 #/10 Mice
  Death, days post-inoculum 2-3: 5 #/10 Mice
  Death, days post-inoculum 4-6: 1 #/10 Mice
  Death, days post-inoculum 7-9: 0 #/10 Mice
  Response Inc. %: 20%
  Survivor No.: 4
Candida albicans; IP 100 × 3 mg/kg
  Death, days post-inoculum 0-1: 6 #/10 Mice
  Death, days post-inoculum 2-3: 4 #/10 Mice
  Death, days post-inoculum 4-6: 0 #/10 Mice
  Death, days post-inoculum 7-9: 0 #/10 Mice
  Response Inc. %: 0%
  Survivor No.: 0
Candida albicans; summary, no dose stated
  in vivo immunomodulation activity: moderate
Rat platelet rich plasma
  collagen induced platelet aggregation: not affected
CHO cells [7]
  micronuclei numbers: increased compared to the parallel control specimens
  number of micronuclei inside certain binuclear cells: up to 4
